Experimental data published in paper PMC6218799 (BioMed Research International, 2018).

Assays:
CYP2C19 [1] = details: in vivo; cited from earlier work
CYP2E1 = test system: CYP2E1; design: method as in ref 43 = [43]; 43 Du Y. Zhu R.-H. Su F.-L. Wang F. Liang H.-X. Li H.-D. Effect of oleanolic acid on CYP1A2, CYP2E1 and CYP3A4 activity in healthy subjects Chinese Pharmaceutical Journal 2008 43 4 300 303 2-s2.0-5304; details: healthy volunteers; cited from earlier work
CYP1A2 [2] = test system: CYP1A2; design: method as in ref 43 = [43]; 43 Du Y. Zhu R.-H. Su F.-L. Wang F. Liang H.-X. Li H.-D. Effect of oleanolic acid on CYP1A2, CYP2E1 and CYP3A4 activity in healthy subjects Chinese Pharmaceutical Journal 2008 43 4 300 303 2-s2.0-5304; details: healthy volunteers; cited from earlier work
CYP3A4 [3] = details: healthy volunteers; cited from earlier work
CYP1A2 [4] = target: T1, CYP1A2 (Rattus norvegicus, UniProt P04799); assay: Cocktail method in rats: pharmacokinetics of probe drug theophylline (CYP1A2 activity); type: in vivo; details: male, Wistar, plasma, iv, 10 mg/kg, theophylline 10 mg/kg iv
T1 construct: from tissue; host or cells: whole animal, male Wistar rats (in vivo pharmacokinetics)
T1 sequence (P04799 1-513): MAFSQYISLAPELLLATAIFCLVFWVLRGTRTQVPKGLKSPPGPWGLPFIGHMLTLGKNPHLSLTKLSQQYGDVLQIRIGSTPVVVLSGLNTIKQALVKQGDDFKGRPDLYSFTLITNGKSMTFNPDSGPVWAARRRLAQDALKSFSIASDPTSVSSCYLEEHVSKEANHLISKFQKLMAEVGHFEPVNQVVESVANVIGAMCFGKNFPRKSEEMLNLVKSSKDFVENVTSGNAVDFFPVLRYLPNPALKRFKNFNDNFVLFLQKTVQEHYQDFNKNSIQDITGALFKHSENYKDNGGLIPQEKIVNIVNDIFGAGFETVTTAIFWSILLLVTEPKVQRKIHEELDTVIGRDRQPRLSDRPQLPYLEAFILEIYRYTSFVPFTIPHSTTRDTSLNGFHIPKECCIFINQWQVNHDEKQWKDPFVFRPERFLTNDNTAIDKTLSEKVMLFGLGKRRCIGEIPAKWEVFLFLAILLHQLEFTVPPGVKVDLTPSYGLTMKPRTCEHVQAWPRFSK
Description: (§1) UltiMate3000 HPLC equipped with diode array detector was used to analyze the compounds.
(§2) Forty-eight male Wistar rats (220 ± 20 g) were randomly divided into two control groups, two Digeda groups, and two positive groups (n=8). […] The other groups were given the mixture of two probe drugs (omeprazole and midazolam were 10 mg/kg and 5 mg/kg) by intravenous injection.
(§3) The samples were immediately centrifuged at 3500 r/min for 10 min, and 200 μL plasma was obtained from each sample.
(§4) The plasma samples were extracted. In a 5 mL centrifuge tube, 100 μL of the IS working solution (0.1 mg/mL) was added to 200 uL of collected plasma sample followed by the addition of 2 mL of dichloromethane. After the tube was vortex-mixed for 5 min, the sample was centrifuged at 3500 r/min for 10 min. 1.2 mL of the organic phase was transferred into the other glass tube and was dried by nitrogen. The residue was redissolved with 200 μL methanol and then injected into the HPLC system for analysis. The concentration of probe drugs in plasma was measured by HPLC.
(§5) Plasma probe drug concentration versus time data for each rat was analyzed by DAS software (version 3.0, Drug Clinical Research Center of Shanghai University of TCM and Shanghai BioGuider Medicinal Technology, Co. Ltd., China). The pharmacokinetic parameters of the Digeda group and control group probe drugs with the t-test were analyzed using SPSS 17.0 statistical software. p < 0.05 was considered statistically significant.

CYP1A2 [5] = test system: CYP1A2; design: method as in ref 45 = [45]; 45 Han Y. L. Meng X. L. Li D. In Vitro Inhibition of Six Cytochrome P450 Isoforms in Human Liver Microsomes by Qingkailing Injection and Its Two Active Components(Baicalin and Geniposide) Chinese Phar; details: Han's research; cited from earlier work
CYP2C9 [6] = test system: CYP2C9; design: method as in ref 45 = [45]; 45 Han Y. L. Meng X. L. Li D. In Vitro Inhibition of Six Cytochrome P450 Isoforms in Human Liver Microsomes by Qingkailing Injection and Its Two Active Components(Baicalin and Geniposide) Chinese Phar; details: Han's research; cited from earlier work
CYP2C19 [7] = test system: CYP2C19; design: method as in ref 45 = [45]; 45 Han Y. L. Meng X. L. Li D. In Vitro Inhibition of Six Cytochrome P450 Isoforms in Human Liver Microsomes by Qingkailing Injection and Its Two Active Components(Baicalin and Geniposide) Chinese Phar; details: Han's research; cited from earlier work
CYP3A4 [8] = test system: CYP3A4; design: method as in ref 45 = [45]; 45 Han Y. L. Meng X. L. Li D. In Vitro Inhibition of Six Cytochrome P450 Isoforms in Human Liver Microsomes by Qingkailing Injection and Its Two Active Components(Baicalin and Geniposide) Chinese Phar; details: Han's research; cited from earlier work
CYP3A4 [9] = assay: Cocktail method in rats: pharmacokinetics of probe drug midazolam (CYP3A4 activity); details: male, Wistar, rat, plasma, iv, 5 mg/kg, midazolam 5 mg/kg iv; for AUC(0-t): AUC0~t; for AUC(0-inf): AUC0~∞; for clearance: Cl
Description: as §1, §2, §3, §4, §5

CYP2C19 [10] = assay: Cocktail method in rats: pharmacokinetics of probe drug omeprazole (CYP2C19 activity); type: in vivo; details: male, Wistar, omeprazole 10 mg/kg iv
Description: as §1, §2, §3, §4, §5

CYP2C9 [11] = test system: CYP2C9; design: method as in ref 44 = [44]; 44 Zhang Y. D. Liu X. Q. Guo Y. L. Effects of 20 active ingredients of traditional Chinese herbs on CYP2C9 activities in rat liver microsomes Journal of Third Military Medical University 2013 35 24 26; details: rat liver microsomes in vitro; cited from earlier work
[12] = Digeda group (Digeda-4 decoction 600 mg/kg ig 14 days)
[13] = control group (saline ig 14 days)
[14] = positive group (phenobarbital 50 mg/kg ip 7 days)
[15] = positive group (phenobarbital 50 mg/kg ip 7 days), rat plasma
[16] = rat, plasma, iv, 10 mg/kg, Digeda group (Digeda-4 decoction 600 mg/kg ig 14 days)
[17] = rat, plasma, iv, 10 mg/kg, control group (saline ig 14 days)
[18] = rat, plasma, iv, 10 mg/kg, positive group (phenobarbital 50 mg/kg ip 7 days)

**Q.** Which “effect on the activity of CYP2C19” value (CYP2C19 [1]) does the source give for COc1cc(C(=O)O[C@H]2[C@@H]3C=CO[C@@H](O[C@@H]4O[C@H](CO)[C@@H](O)[C@H](O)[C@H]4O)[C@@H]3[C@@]3(CO)O[C@@H]23)ccc1O [picroside II] here?
**A.** The value was “inhibitory effect”.

**Q.** For CC1(C)CC[C@]2(C(=O)O)CC[C@]3(C)C(=CC[C@@H]4[C@@]5(C)CC[C@H](O)C(C)(C)[C@@H]5CC[C@]43C)[C@@H]2C1 [Oleanolic acid], which “effect on CYP2E1 activity” value (CYP2E1) is on record?
**A.** Its value is “little inhibition”.

**Q.** What about the “effect on CYP1A2 activity” value (CYP1A2 [2]) of the same compound?
**A.** The value was “can inhibit CYP1A2 activity significantly”.

**Q.** And the “effect on CYP3A4” value (CYP3A4 [3])?
**A.** Its value is “no effect”.

**Q.** Which AUC(0-inf) (CYP1A2 [4]; [12]) does the source give for Cn1c(=O)c2[nH]cnc2n(C)c1=O [Theophylline, theophylline] here?
**A.** Its AUC(0-inf) is 569000 ± 142000 ng·h/mL.

**Q.** What about the AUC(0-t) (CYP1A2 [4]; [12]) of the same compound?
**A.** The AUC(0-t) was 299000 ± 67000 ng·h/mL.

**Q.** And the Cmax (CYP1A2 [4]; [12])?
**A.** Its Cmax is 30700 ± 5450 ng/mL.

**Q.** What about the clearance (CYP1A2 [4]; [12]) of the same compound?
**A.** Its clearance is 0.333 mL/min/kg.

**Q.** And the half-life (CYP1A2 [4]; [12])?
**A.** Its half-life is 835 ± 160 min.

**Q.** And the AUC(0-inf) (CYP1A2 [4]; [13])?
**A.** Its AUC(0-inf) is 326000 ± 76900 ng·h/mL.

**Q.** And the AUC(0-t) (CYP1A2 [4]; [13])?
**A.** The AUC(0-t) was 206000 ± 37100 ng·h/mL.

**Q.** And the Cmax (CYP1A2 [4]; [13])?
**A.** Its Cmax is 31800 ± 5610 ng/mL.

**Q.** And the clearance (CYP1A2 [4]; [13])?
**A.** The clearance was 0.55 mL/min/kg.

**Q.** What about the half-life (CYP1A2 [4]; [13]) of the same compound?
**A.** The half-life was 402 ± 97.5 min.

**Q.** And the AUC(0-inf) (CYP1A2 [4]; [14])?
**A.** Its AUC(0-inf) is 118000 ± 21400 ng·h/mL.

**Q.** And the AUC(0-t) (CYP1A2 [4]; [14])?
**A.** The AUC(0-t) was 71900 ± 15400 ng·h/mL.

**Q.** What about the Cmax (CYP1A2 [4]; [14]) of the same compound?
**A.** The Cmax was 30000 ± 5180 ng/mL.

**Q.** What about the clearance (CYP1A2 [4]; [14]) of the same compound?
**A.** The clearance was 1.02 mL/min/kg.

**Q.** And the half-life (CYP1A2 [4]; [14])?
**A.** Its half-life is 148 ± 21.5 min.

**Q.** For COC(=O)C1=CO[C@@H](O[C@@H]2O[C@H](CO)[C@@H](O)[C@H](O)[C@H]2O)[C@@H]2C(CO)=CC[C@H]12 [geniposide], which “inhibitory effect on CYP1A2” value (CYP1A2 [5]) is on record?
**A.** Its value is “no inhibitory effect”.

**Q.** And the “inhibitory effect on CYP2C9” value (CYP2C9 [6])?
**A.** The value was “no inhibitory effect”.

**Q.** And the “inhibitory effect on CYP2C19” value (CYP2C19 [7])?
**A.** Its value is “no inhibitory effect”.

**Q.** And the “inhibitory effect on CYP3A4” value (CYP3A4 [8])?
**A.** The value was “no inhibitory effect”.

**Q.** With Cc1ncc2n1-c1ccc(Cl)cc1C(c1ccccc1F)=NC2 [Midazolam, midazolam] as the compound, how does the AUC(0-t) (CYP3A4 [9]; [12]) read?
**A.** Its AUC(0-t) is 1170 ± 209 ng·h/mL.

**Q.** And the AUC(0-t) (CYP3A4 [9]; [13])?
**A.** The AUC(0-t) was 881 ± 151 ng·h/mL.

**Q.** What about the AUC(0-t) (CYP3A4 [9]; [14]) of the same compound?
**A.** Its AUC(0-t) is 653 ± 95 ng·h/mL.

**Q.** And the AUC(0-inf) (CYP3A4 [9]; [12])?
**A.** The AUC(0-inf) was 1360 ± 309 ng·h/mL.

**Q.** What about the AUC(0-inf) (CYP3A4 [9]; [13]) of the same compound?
**A.** Its AUC(0-inf) is 928 ± 157 ng·h/mL.

**Q.** And the AUC(0-inf) (CYP3A4 [9]; [14])?
**A.** The AUC(0-inf) was 711 ± 125 ng·h/mL.

**Q.** And the clearance (CYP3A4 [9]; [12])?
**A.** The clearance was 69.7 mL/min/kg.

**Q.** And the clearance (CYP3A4 [9]; [13])?
**A.** Its clearance is 104 mL/min/kg.

**Q.** What about the clearance (CYP3A4 [9]; [14]) of the same compound?
**A.** Its clearance is 115 mL/min/kg.

**Q.** What about the Cmax (CYP3A4 [9]; [12]) of the same compound?
**A.** Its Cmax is 2680 ± 509 ng/mL.

**Q.** And the Cmax (CYP3A4 [9]; [13])?
**A.** The Cmax was 2900 ± 491 ng/mL.

**Q.** What about the Cmax (CYP3A4 [9]; [14]) of the same compound?
**A.** Its Cmax is 2560 ± 507 ng/mL.

**Q.** What about the half-life (CYP3A4 [9]; T1/2, Digeda group (Digeda-4 decoction 600 mg/kg ig 14 days)) of the same compound?
**A.** Its half-life is 11.9 ± 1.92 min.

**Q.** What about the half-life (CYP3A4 [9]; T1/2, control group (saline ig 14 days)) of the same compound?
**A.** Its half-life is 8.64 ± 1.8 min.

**Q.** And the half-life (CYP3A4 [9]; T1/2, positive group (phenobarbital 50 mg/kg ip 7 days))?
**A.** The half-life was 6.3 ± 0.96 min.

**Q.** For COc1ccc2[nH]c([S+]([O-])Cc3ncc(C)c(OC)c3C)nc2c1 (stereo not drawn) [Omeprazole, omeprazole], which clearance (CYP2C19 [10]; [15]) is on record?
**A.** The clearance was 10.2 mL/min/kg.

**Q.** And the half-life (CYP2C19 [10]; [15])?
**A.** The half-life was 7.08 ± 1.2 min.

**Q.** What about the AUC(0-inf) (CYP2C19 [10]; [16]) of the same compound?
**A.** The AUC(0-inf) was 14200 ± 2610 ng·h/mL.

**Q.** And the AUC(0-t) (CYP2C19 [10]; [16])?
**A.** Its AUC(0-t) is 13300 ± 2630 ng·h/mL.

**Q.** And the Cmax (CYP2C19 [10]; [16])?
**A.** Its Cmax is 38600 ± 6690 ng/mL.

**Q.** And the clearance (CYP2C19 [10]; [16])?
**A.** Its clearance is 4.9 mL/min/kg.

**Q.** What about the half-life (CYP2C19 [10]; [16]) of the same compound?
**A.** The half-life was 16.9 ± 2.76 min.

**Q.** What about the AUC(0-inf) (CYP2C19 [10]; [17]) of the same compound?
**A.** Its AUC(0-inf) is 7280 ± 1310 ng·h/mL.

**Q.** What about the AUC(0-t) (CYP2C19 [10]; [17]) of the same compound?
**A.** The AUC(0-t) was 6920 ± 1390 ng·h/mL.

**Q.** What about the Cmax (CYP2C19 [10]; [17]) of the same compound?
**A.** Its Cmax is 20900 ± 3710 ng/mL.

**Q.** And the clearance (CYP2C19 [10]; [17])?
**A.** The clearance was 8 mL/min/kg.

**Q.** What about the half-life (CYP2C19 [10]; [17]) of the same compound?
**A.** Its half-life is 9.78 ± 1.92 min.

**Q.** What about the AUC(0-inf) (CYP2C19 [10]; [18]) of the same compound?
**A.** The AUC(0-inf) was 5340 ± 993 ng·h/mL.

**Q.** What about the AUC(0-t) (CYP2C19 [10]; [18]) of the same compound?
**A.** Its AUC(0-t) is 4980 ± 845 ng·h/mL.

**Q.** What about the Cmax (CYP2C19 [10]; [18]) of the same compound?
**A.** Its Cmax is 16900 ± 2630 ng/mL.

**Q.** With C=C[C@H]1[C@H](O[C@@H]2O[C@H](CO)[C@@H](O)[C@H](O)[C@H]2O)OC=C2C(=O)OCC[C@]21O [swertiamarin] as the compound, how does the “effect on CYP2C9 activity” value (CYP2C9 [11]) read?
**A.** Its value is “inhibitory effect”.
